Laboratory results from patent publication US6994841B1, “Relating to magnetic resonance imaging” (Kucharczyk and Moseley Partners, priority 1990, dated 2006).

Legend:
[1] = system: cat brain after right middle cerebral artery (MCA) occlusion; experiment: DyDTPA-BMA-enhanced T2-weighted spin-echo MRI of cerebral perfusion deficit after MCA occlusion; format: in vivo; conditions: for signal difference between ischemic and contralateral control tissue: mean ± S.E.M.
Description: Young adult cats weighing 2.0 to 4.5 kg were anaesthetized with 30 mg/kg i.v. Nembutal. Polyethylene catheters were placed in the femoral artery and vein for blood pressure monitoring and drug administration. The right middle cerebral artery (MCA) was isolated via the transorbital approach and occluded just proximal to the origin of the lateral striate arteries with bipolar electrocautery followed by complete surgical transection. The dural incision and orbit were covered with saline moistened gauze and absorbable gelatin sponge.
A General Electric CSI (2 Tesla) unit, equipped with Acustar S-150 self-shielded gradient coils (+20 gauss/cm, 15 cm bore size) was used. MRI was performed with an 8.5 cm inner-diameter low-pass birdcage proton imaging coil. Successive multislice T2-weighted coronal images were obtained for up to 12 hours following occlusion. Spin-echo T2-weighted images (TR 2800, TE 80 and 160, 3 mm slices, 1 mm gap) were obtained with a field-of-view (FOV) of 80 mm in which two scans were averaged for each one of the 128 phase-encoding steps resulting in a total acquisition time of 12 minutes.
In order to evaluate the anatomic region of perfusion deficiency following MCA occlusion, cats were injected with a non-ionic T2*-shortening contrast agent, DyDTPA-BMA. The DyDTPA-BMA complex was prepared by refluxing an aqueous suspension containing stoichiometric amounts of dysprosium oxide and DTPA-BMA. The contrast agent was infused i.v. at doses of 0.25, 0.5 or 1.0 mmol/kg beginning at phase-encoding step #32 and finishing at step #60 (approximately 3 min) of T2-weighted image acquisition. DyDTPA-BMA injections were given at different time points post MCA occlusion in individual cats. After injection, the magnetic susceptibility effect was quantified for up to 60 minutes in both ischemic and normal hemispheres by comparing region-of-interest (ROI) intensity to pre-contrast T2-weighted ROI intensities. […] A signal intensity ratio was calculated as the ROI image intensity ratio of an abnormal, ischemic region over that of the normal, contralateral side. Results were expressed as the mean percentage change ±Standard Error of the Mean (X±S.E.M.)
At the conclusion of the MR protocol, 15 ml/kg of a 2% solution of 2,3,5-triphenyl tetrazolium chloride (TTC) was infused transcardially. The brain was removed from the cranium after 10–20 minutes, immersed in a 2% TTC solution for another 10–20 minutes, and then stored overnight in 10% buffered formalin in a light shielded container. The brain was sectioned coronally (2–3 mm slices) from 24–36 hours later and immediately examined for histologic evidence of ischemic damage as evidenced by pallor of TTC-staining.

[2] = system: mice; experiment: LD50 i.v. administration in mice; format: in vivo

SMILES: CNC(=O)CN(CCN(CCN(CC(=O)[O-])CC(=O)NC)CC(=O)[O-])CC(=O)[O-].[Dy+3] [DyDTPA-BMA]
- Onset of signal hypertensity (relative to pre-contrast T2-weighted image): Earlier (number of cats) ([1]; 0.25 mmol/kg, 5 cats tested): 1
- Onset of signal hypertensity (relative to pre-contrast T2-weighted image): Later (number of cats) ([1]; 0.25 mmol/kg, 5 cats tested): 0
- Onset of signal hypertensity (relative to pre-contrast T2-weighted image): Same Time (number of cats) ([1]; 0.25 mmol/kg, 5 cats tested): 4
- Signal intensity ratio of injured to contralateral control tissue (relative to pre-contrast T2 weighted image): Better (number of injections) ([1]; 0.25 mmol/kg, 5 injections): 4
- Signal intensity ratio of injured to contralateral control tissue (relative to pre-contrast T2 weighted image): Same (number of injections) ([1]; 0.25 mmol/kg, 5 injections): 1
- Signal intensity ratio of injured to contralateral control tissue (relative to pre-contrast T2 weighted image): Worse (number of injections) ([1]; 0.25 mmol/kg, 5 injections): 0
- maximum signal intensity losses ([1]; 0.5 mmol/kg i.v., gray matter of normal non-occluded cerebral hemisphere, first 15 minutes after injection): 35%
- Onset of signal hypertensity (relative to pre-contrast T2-weighted image): Earlier (number of cats) ([1]; 0.50 mmol/kg, 16 cats tested): 12
- Onset of signal hypertensity (relative to pre-contrast T2-weighted image): Later (number of cats) ([1]; 0.50 mmol/kg, 16 cats tested): 0
- Onset of signal hypertensity (relative to pre-contrast T2-weighted image): Same Time (number of cats) ([1]; 0.50 mmol/kg, 16 cats tested): 4
- Signal intensity ratio of injured to contralateral control tissue (relative to pre-contrast T2 weighted image): Better (number of injections) ([1]; 0.50 mmol/kg, 23 injections): 17
- Signal intensity ratio of injured to contralateral control tissue (relative to pre-contrast T2 weighted image): Same (number of injections) ([1]; 0.50 mmol/kg, 23 injections): 6
- Signal intensity ratio of injured to contralateral control tissue (relative to pre-contrast T2 weighted image): Worse (number of injections) ([1]; 0.50 mmol/kg, 23 injections): 0
- Onset of signal hypertensity (relative to pre-contrast T2-weighted image): Earlier (number of cats) ([1]; 1.0 mmol/kg, 6 cats tested): 4
- Onset of signal hypertensity (relative to pre-contrast T2-weighted image): Later (number of cats) ([1]; 1.0 mmol/kg, 6 cats tested): 0
- Onset of signal hypertensity (relative to pre-contrast T2-weighted image): Same Time (number of cats) ([1]; 1.0 mmol/kg, 6 cats tested): 2
- Signal intensity ratio of injured to contralateral control tissue (relative to pre-contrast T2 weighted image): Better (number of injections) ([1]; 1.0 mmol/kg, 16 injections): 14
- Signal intensity ratio of injured to contralateral control tissue (relative to pre-contrast T2 weighted image): Same (number of injections) ([1]; 1.0 mmol/kg, 16 injections): 2
- Signal intensity ratio of injured to contralateral control tissue (relative to pre-contrast T2 weighted image): Worse (number of injections) ([1]; 1.0 mmol/kg, 16 injections): 0
- signal intensity recovery, of pre-contrast control values ([1]; 45 minutes after administration, all cerebral tissues): at least 90%
- signal difference between ischemic and contralateral control tissue ([1]; basal ganglia): 26±8%
- time post-occlusion at which relative hyperintensity was found in occluded basal ganglia (as early as) ([1]; both 1 mmol/kg and 0.5 mmol/kg dosages): 30 min
- difference in immediate post-contrast signal intensity on increasing dosage ([1]; dosage increased from 0.5 to 1.0 mmol/kg): only a minimal difference
- signal difference between ischemic and contralateral control tissue ([1]; gray matter in the inferior parietal gyrus): 42±14%
- signal difference between ischemic and contralateral control tissue ([1]; white matter in the internal capsule): 5±4%
- LD50 [2]: 34 mmol/kg
